Reference: patent US20180118707A1, “BETA-NAPHTHOISOFLAVONES, COMPOSITIONS CONTAINING, AND USES OF, SAME” (Thesan Pharmaceuticals, Inc., priority 2015, published 2018)

Molecular target: T1, Aryl Hydrocarbon Receptor (Homo sapiens, UniProt P35869)
T1 construct: endogenous in cells; host or cells: Normal human keratinocytes (NHK) transduced with the lentivector plox-XRE TATA-Luc (reporter only)
T1 sequence (P35869 11-848): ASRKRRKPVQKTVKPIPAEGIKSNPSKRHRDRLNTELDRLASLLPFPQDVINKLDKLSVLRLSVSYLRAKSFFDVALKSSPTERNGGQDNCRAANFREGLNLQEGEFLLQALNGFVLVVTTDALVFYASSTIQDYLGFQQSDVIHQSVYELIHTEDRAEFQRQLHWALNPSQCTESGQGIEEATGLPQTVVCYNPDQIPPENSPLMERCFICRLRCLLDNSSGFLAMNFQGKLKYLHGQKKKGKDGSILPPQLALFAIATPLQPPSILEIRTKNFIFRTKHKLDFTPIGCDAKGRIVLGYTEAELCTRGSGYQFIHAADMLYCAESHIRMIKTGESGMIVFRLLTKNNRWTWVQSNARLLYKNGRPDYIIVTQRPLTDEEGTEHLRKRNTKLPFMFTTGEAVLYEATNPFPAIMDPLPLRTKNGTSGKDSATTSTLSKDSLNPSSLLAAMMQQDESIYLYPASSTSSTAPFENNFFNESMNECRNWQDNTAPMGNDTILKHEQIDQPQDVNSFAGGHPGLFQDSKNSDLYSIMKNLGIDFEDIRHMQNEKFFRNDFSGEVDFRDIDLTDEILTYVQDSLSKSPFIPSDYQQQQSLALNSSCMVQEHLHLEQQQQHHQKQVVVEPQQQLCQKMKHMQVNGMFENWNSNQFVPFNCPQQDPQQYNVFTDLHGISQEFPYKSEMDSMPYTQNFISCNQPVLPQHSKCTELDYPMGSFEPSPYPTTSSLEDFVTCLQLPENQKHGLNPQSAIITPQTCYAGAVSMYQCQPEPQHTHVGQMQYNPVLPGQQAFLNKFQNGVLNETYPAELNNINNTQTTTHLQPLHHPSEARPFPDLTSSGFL
Assay: AhR activation luciferase reporter in NHK-plox-XRE TATA-Luc cells
Assay type: cell-based
Details: treatment for 24 h with 1-10 uM
Protocol: AhR activation is also measured in human skin cells such as normal human keratinocytes (NHK cells) or A431 epidermoid cells stably transfected with the lentivector plox-XRE TATA-Luc. The NHK cells are cultured in a specific keratinocyte SFM medium (Glbco)+penicillin+streptomycin. At D0, the NHK cells are seeded Into 6-well plates in a proportion of approximately 15,000 cells/cm^2. After 24 h, the medium is replaced with fresh medium and the cells are transduced with the lentivector plox-XRE TATA-Luc. After 48 h, the cells are subcultured and maintained in culture, and tested for their reactivity to 3-phenyl-1H-benzo[f]chromen-1-one. The tests are carried out using the luciferase reporter assay system kit from Promega. At D0, the cells are seeded at a density of approximately 60% confluence, and then treated, at D1, with the test substance diluted to various concentrations in the appropriate culture medium. At D2, the cells are lysed in CLB buffer, and the lysate is clarified by centrifugation for 5 min at 10 000 g. The luciferase activity is measured in 20 microliters of lysate as recommended by the supplier, using the luminoskan luminometer (Thermo). […] Data is processed and ECso's can be calculated from standard data monitoring software.

For O=c1cc(-c2ccccc2)oc2ccc3ccccc3c12 [D, 3-Phenyl-1H-benzo[f]chromen-1-one, reference compound], the “induction of luciferase activity” value was “significant induction”.
